According to the RepoRT retention time repository (doi:10.1021/acs.analchem.2c02893):

Assay: RP, Thermo Scientific Acclaim RSLC 120 C18, 100 × 2.1 mm, 2.2 µm, 30 °C, 0.2 mL/min, estimated dead time 1.1 min; A: 90% water + 10% methanol + 0.01% formic acid + 5 mM ammonium formate, pH 3.61; B: methanol + 0.01% formic acid + 5 mM ammonium formate, pH 3.61; gradient (min/%B) 0/1 1/1 2/39 13/99.9 15/99.9 15.1/1 20.1/1
Settings: stereoisomer not certain

## CCCS(=O)(=O)c1ccc2nc(NC(=O)OC)[nH]c2c1 [Albendazole sulfone]
  LC retention time: 5.86 min

## Cc1ccc(-c2nc3ccc(C)cn3c2CC(=O)N(C)C)cc1 [Zolpidem]
  LC retention time: 5.8 min

## CC(C)(c1ccc(OCC(O)CO)cc1)c1ccc(OCC2CO2)cc1 (stereo not given) [Bisphenol<U+00A0>A (2,3-dihydroxypropyl) glycidyl ether]
  LC retention time: 9.52 min

## CN(C)CCN1c2ccccc2Sc2ccc(Cl)cc21 [Chlorphenethazine]
  LC retention time: 8.49 min

## CN1CCOC(c2ccccc2)c2ccccc2C1 (stereo not given) [Nefopam]
  LC retention time: 5.67 min

## COCCOc1c(OC)cc(Cc2cnc(N)nc2N)cc1OC [Tetroxoprim]
  LC retention time: 4.24 min

## CN(C)CCN1C(=O)c2ccccc2Nc2cc(Cl)ccc21 [Clobenzepam]
  LC retention time: 6.32 min

## C[N+](C)([O-])CCC(c1ccccc1)c1ccccn1 (stereo not given) [Pheniramine N-Oxide]
  LC retention time: 5.39 min

## CNC(C)C(=O)c1ccc(F)cc1 (stereo not given) [Methcathinone (4-F-/ 4-FMC. Flephedrone)]
  LC retention time: 3.91 min

## CCC(NC)C(=O)c1ccccc1 (stereo not given) [Buphedrone]
  LC retention time: 4.26 min

## COc1c(N2CC3CCCNC3C2)c(F)cc2c(=O)c(C(=O)O)cn(C3CC3)c12 (stereo not given) [Moxifloxacin]
  LC retention time: 5.17 min

## CC(C)=CCN1CCC2(C)c3cc(O)ccc3CC1C2C (stereo not given) [Pentazocine]
  LC retention time: 5.46 min

## O=S(=O)(c1ccc(O)cc1)c1ccc(O)cc1 [Bisphenol S]
  LC retention time: 5.35 min

## CC(C)NCC(O)COc1cccc2[nH]c3ccccc3c12 (stereo not given) [Carazolol]
  LC retention time: 5.49 min

## CCOP(=S)(NC(C)CC)Oc1cc(C)ccc1[N+](=O)[O-] (stereo not given) [Butamifos]
  LC retention time: 11.2 min

## CN(C)CCN1C(=O)c2ccccc2N(C)c2ccccc21 [Dibenzepin]
  LC retention time: 5.49 min

## COP(=S)(OC)Oc1cc(Cl)c(Br)cc1Cl [Bromophos (Bromophos-methyl)]
  LC retention time: 12.7 min

## COC(=O)Nc1cccc(OC(=O)Nc2cccc(C)c2)c1 [Phenmedipham]
  LC retention time: 8.75 min

## CCCc1nn(C)c2c(=O)[nH]c(-c3cc(C(=O)CCl)ccc3OCC)nc12 [Chlorodenafil]
  LC retention time: 10.2 min

## COc1cc(CC(C)N)c(OC)cc1C (stereo not given) [DOM (2.5-Dimethoxy-4-methylamphetamine)]
  LC retention time: 5.83 min

## O=C(c1cccc2ccccc12)c1cn(CCCCO)c2ccccc12 [JWH-073-M-4-OH-Butyl]
  LC retention time: 9.56 min

## Cc1nnc2n1-c1ccc([N+](=O)[O-])cc1C(c1ccccc1)=NC2 [Nitrazolam]
  LC retention time: 6.91 min

## CCCCCCCCCCCC[N+](CCO)(CCO)Cc1ccccc1 [Benzoxonium]
  LC retention time: 11.3 min

## CNc1cnn(-c2cccc(C(F)(F)F)c2)c(=O)c1Cl [Norflurazon]
  LC retention time: 8.51 min

## CC(=O)Oc1ccc2c3c1OC1C(OC(C)=O)C=CC4C(C2)N(C)CCC341 (stereo not given) [Heroin]
  LC retention time: 4.63 min

## CC(C)(C)Nc1nc(N)[nH]c(=O)n1 [Terbuthylazine-desethyl-2-hydroxy]
  LC retention time: 3.99 min

## CC12CC(O)C3C(CCC4=CC(=O)CCC43C)C1CCC2=O (stereo not drawn) [4-Androsten-11beta-ol-3,17-dione]
  LC retention time: 8.23 min

## CCCCOCCOCCOCc1cc2c(cc1CCC)OCO2 [Piperonyl butoxide]
  LC retention time: 12.4 min

## CCS(=O)c1c(C#N)nn(-c2c(Cl)cc(C(F)(F)F)cc2Cl)c1N (stereo not given) [Ethiprole]
  LC retention time: 9.32 min

## CNC(=O)ON=C(SC)C(=O)N(C)C [Oxamyl]
  LC retention time: 3.77 min

## COc1cc2nc(N3CCN(C(=O)c4ccco4)CC3)nc(N)c2cc1OC [Prazosin]
  LC retention time: 5.34 min

## COP(=S)(OC)SCn1nnc2ccccc2c1=O [Azinphos-methyl (Guthion)]
  LC retention time: 8.89 min

## COP(=O)(NC(C)=O)SC (stereo not given) [Acephate]
  LC retention time: 3.11 min

## Nc1cc(-c2ccncc2)c[nH]c1=O [Amrinone]
  LC retention time: 2.88 min

## CCCc1nn(C)c2c(=O)[nH]c(-c3cc(S(=O)(=O)N4CCN(C5CCCC5)CC4)ccc3OCC)nc12 [Cyclopentynafil]
  LC retention time: 9.01 min

## CN(C)CC=C(c1ccc(Br)cc1)c1cccnc1 [Zimelidine]
  LC retention time: 6.56 min

## O=C(NC(=O)c1c(F)cccc1F)Nc1ccc(CON=C(c2ccc(Cl)cc2)C2CC2)cc1 [Flucycloxuron]
  LC retention time: 12.8 min

## NS(=O)(=O)c1cc2c(cc1Cl)NCNS2(=O)=O [Hydrochlorothiazide (NH4)]
  LC retention time: 3.24 min

## CCCc1nn(C)c2c(=O)[nH]c(-c3cc(C(=O)CN4CCN(CC=Cc5ccccc5)CC4)ccc3OCC)nc12 [Cinnamyldenafil]
  LC retention time: 9.28 min

## CCNP(=S)(OC)OC(C)=CC(=O)OC(C)C (stereo not given) [Propetamphos]
  LC retention time: 9.79 min

## CC=C1CC(C)C(O)(CO)C(=O)OCC2=CC[N+]3([O-])CCC(OC1=O)C23 (stereo not given) [Retrorsine-N-oxide]
  LC retention time: 4.33 min

## CSc1nnc(C(C)(C)C)c(=O)n1N [Metribuzin]
  LC retention time: 7.07 min

## CCOc1ccc2c(c1)C(C)=CC(C)(C)N2 [Ethoxyquin]
  LC retention time: 10.1 min

## CCCCNC(=O)OCC#CI [3-Iodopropynyl butylcarbamate]
  LC retention time: 8.05 min

## O=C(Nc1ccccc1)N(Cc1ccc(Cl)cc1)C1CCCC1 [Pencycuron]
  LC retention time: 11.4 min

## CCCC(=O)Nc1ccc(OCC(O)CNC(C)C)c(C(C)=O)c1 (stereo not given) [Acebutolol]
  LC retention time: 4.78 min

## NC(N)=NC(=O)c1nc(Cl)c(N2CCCCCC2)nc1N [HMA]
  LC retention time: 3.23 min

## CCC(C)(NC(=O)c1cc(Cl)c(C)c(Cl)c1)C(=O)CCl (stereo not given) [Zoxamide]
  LC retention time: 11.1 min

## O=C(O)c1cc(N=Nc2ccc(S(=O)(=O)Nc3ccccn3)cc2)ccc1O [Sulfasalazine]
  LC retention time: 6.61 min

## CCN(CC)C(=O)NC1C=C2c3cccc4[nH]cc(c34)CC2N(C)C1 (stereo not given) [Lisuride]
  LC retention time: 5.92 min

## COC(=O)C(NC(=O)c1nn(Cc2ccc(F)cc2)c2ccccc12)C(C)C (stereo not given) [FUB-AMB]
  LC retention time: 10.8 min

## COCC(C)N(C(=O)CCl)c1c(C)csc1C (stereo not given) [Dimethenamide]
  LC retention time: 9.26 min

## CNC(=O)Oc1cccc2c1OC(C)(C)C2O (stereo not given) [Carbofuran-3-hydroxy]
  LC retention time: 5.09 min

## CC12CCC3C(CC=C4CC(O)CCC43C)C1CCC2=O (stereo not given) [Dhydroepiandrosterone (DHEA) / Androstenolone]
  LC retention time: 10.2 min

## C#CCOC(=O)C(C)Oc1ccc(Oc2ncc(Cl)cc2F)cc1 (stereo not given) [Clodinafop-propargyl]
  LC retention time: 10.7 min

## CC=CC(=O)N(CC)C(CC)C(=O)N(C)C (stereo not given) [Crotethamide]
  LC retention time: 6.13 min

## CCCCOC(=O)C1C(C(=O)OCCCC)C2(Cl)C(Cl)=C(Cl)C1(Cl)C2(Cl)Cl (stereo not given) [Chlorendate-Dibutyl]
  LC retention time: 14 min

## CC1CCCC(C)N1NC(=O)c1ccc(Cl)c(S(N)(=O)=O)c1 (stereo not given) [Clopamide]
  LC retention time: 6.01 min

## OCCN1CCN(CCCN2c3ccccc3Sc3ccc(C(F)(F)F)cc32)CC1 [Fluphenazine]
  LC retention time: 9.93 min

## COC(=O)COc1nc(Cl)c(Cl)cc1Cl [Triclopyr-methylester]
  LC retention time: 10.4 min

## COP(=O)(OC)Oc1ccc(SC)c(C)c1 [Fenthion-oxon]
  LC retention time: 8.82 min

## CC(C)C(NC(=O)c1nn(CCCCCCl)c2ccccc12)C(N)=O (stereo not given) [AB-PINACA 5Cl]
  LC retention time: 9.99 min

## COc1ccc(C(CN(C)C)C2(O)CCCCC2)cc1 (stereo not given) [Venlafaxine]
  LC retention time: 6.14 min

## CC(Cc1ccccc1)NCCC#N (stereo not given) [Fenproporex (NARL)]
  LC retention time: 4.14 min

## CN1CCC23c4c5ccc(OC6OC(C(=O)O)C(O)C(O)C6O)c4OC2C(O)C=CC3C1C5 [Morphine-3-beta-D-glucuronide]
  LC retention time: 1.63 min

## OCC(O)CN1CCN(c2ccccc2)CC1 (stereo not given) [Dropropizine]
  LC retention time: 3.79 min

## CCCNC(C)C(=O)Nc1c(C)csc1C(=O)OC (stereo not given) [Carticaine (Articaine)]
  LC retention time: 4.69 min

## CC12C=CC(=O)C=C1CCC1C2CCC2(C)C(O)CCC12 (stereo not given) [Boldenone]
  LC retention time: 9.03 min

## CCN(CC)CC(C)(C)COC(=O)c1ccc(N)cc1 [Dimethocain]
  LC retention time: 4.24 min

## CC(N)Cc1ccc(O)cc1 (stereo not given) [Amphetamine-P-hydroxy]
  LC retention time: 2.98 min

## CC=C1CC(C)C(C)(O)C(=O)OCC2=CC[N+]3([O-])CCC(OC1=O)C23 (stereo not given) [Senecionine-N-oxide]
  LC retention time: 5.07 min

## Cc1nc(NS(=O)(=O)c2ccc(N)cc2)oc1C [Sulfamoxole]
  LC retention time: 4.11 min

## CCS(=O)Cc1ccccc1OC(=O)NC (stereo not given) [Ethiofencarb-sulfoxide]
  LC retention time: 4.7 min

## CC1(C)C(C(=O)c2cn(CCCCCF)c3ccccc23)C1(C)C [XLR-11]
  LC retention time: 11.9 min

## CN(CCO)CC(O)Cn1cnc2c1c(=O)n(C)c(=O)n2C (stereo not given) [Xanthinol]
  LC retention time: 2.99 min

## CC(=O)OC1CN2CCC1CC2 (stereo not given) [Aceclidine]
  LC retention time: 4.87 min

## NC(=O)N1c2ccccc2C2OC2c2ccccc21 (stereo not given) [Carbamazepine-10.11-epoxide]
  LC retention time: 6.04 min

## CN(CCO)c1nc2c(c(=O)n(C)c(=O)n2C)n1C [Cafaminol]
  LC retention time: 4.94 min

## CCCc1nn(C)c2c(=O)[nH]c(-c3cc(S(=O)(=O)N4CCN(CC)CC4)ccc3OCC)nc12 [HomoSildenafil]
  LC retention time: 7.84 min

## CCOc1ccccc1C(N)=O [Ethenzamide]
  LC retention time: 5.68 min

## COP(=S)(OC)Oc1nc(Cl)c(Cl)cc1Cl [Chlorpyriphos-methyl]
  LC retention time: 11.7 min

## CCCCn1cc(C(=O)c2cccc3ccccc23)c2cc(O)ccc21 [JWH-073-M-5-OH-Ind]
  LC retention time: 11.3 min

## COc1cc(CCNCc2ccccc2OC)c(OC)cc1I [25I-NBoMe]
  LC retention time: 8.03 min

## CCCCc1c(C)nc(N(C)C)[nH]c1=O [Dimethirimol]
  LC retention time: 7.7 min

## Cc1nnc2n1-c1ccc(Br)cc1C(c1ccccn1)=NC2 [Pyrazolam]
  LC retention time: 6.27 min
